The term IC50 denotes the concentration at which inhibition is half-maximal.

This passage reports IC50 results from patent US12581252B2, “Substituted pyrrolo[3,4-b]pyridines as PI3K-α inhibitors” (Relay Therapeutics, Inc., priority 2020, dated 2026).

Chain of H1047R PIK3CA enzyme (P42336 whole entry H1047R): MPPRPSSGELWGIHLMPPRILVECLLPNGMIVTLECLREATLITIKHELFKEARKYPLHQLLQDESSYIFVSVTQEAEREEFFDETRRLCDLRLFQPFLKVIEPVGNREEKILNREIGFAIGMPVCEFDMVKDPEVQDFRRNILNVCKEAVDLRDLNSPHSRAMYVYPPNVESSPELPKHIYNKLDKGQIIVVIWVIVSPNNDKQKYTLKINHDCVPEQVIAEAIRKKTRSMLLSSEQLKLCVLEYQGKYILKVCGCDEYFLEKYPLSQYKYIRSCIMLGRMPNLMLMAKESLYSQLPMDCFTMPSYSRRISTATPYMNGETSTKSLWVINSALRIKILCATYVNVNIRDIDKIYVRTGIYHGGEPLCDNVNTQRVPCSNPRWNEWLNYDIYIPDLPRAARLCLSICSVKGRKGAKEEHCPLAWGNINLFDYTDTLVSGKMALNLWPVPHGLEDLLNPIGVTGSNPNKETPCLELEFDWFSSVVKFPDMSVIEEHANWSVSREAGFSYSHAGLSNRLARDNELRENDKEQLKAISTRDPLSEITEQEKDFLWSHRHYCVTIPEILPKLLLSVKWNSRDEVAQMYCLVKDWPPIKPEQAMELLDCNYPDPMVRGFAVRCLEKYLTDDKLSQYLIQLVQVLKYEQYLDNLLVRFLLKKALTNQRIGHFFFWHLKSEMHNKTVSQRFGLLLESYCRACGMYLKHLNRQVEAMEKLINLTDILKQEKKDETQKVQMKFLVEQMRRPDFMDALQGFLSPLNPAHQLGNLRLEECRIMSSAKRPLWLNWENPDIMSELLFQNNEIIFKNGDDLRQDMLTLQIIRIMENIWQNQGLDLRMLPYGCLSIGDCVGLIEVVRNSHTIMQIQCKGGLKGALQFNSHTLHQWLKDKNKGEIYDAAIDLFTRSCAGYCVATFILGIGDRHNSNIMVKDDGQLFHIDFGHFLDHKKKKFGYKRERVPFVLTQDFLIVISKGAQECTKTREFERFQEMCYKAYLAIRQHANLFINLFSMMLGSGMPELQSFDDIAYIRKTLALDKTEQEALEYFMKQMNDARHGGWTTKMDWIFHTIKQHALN
Chain of H1047R PIK3CA enzyme (P27986 whole entry partner): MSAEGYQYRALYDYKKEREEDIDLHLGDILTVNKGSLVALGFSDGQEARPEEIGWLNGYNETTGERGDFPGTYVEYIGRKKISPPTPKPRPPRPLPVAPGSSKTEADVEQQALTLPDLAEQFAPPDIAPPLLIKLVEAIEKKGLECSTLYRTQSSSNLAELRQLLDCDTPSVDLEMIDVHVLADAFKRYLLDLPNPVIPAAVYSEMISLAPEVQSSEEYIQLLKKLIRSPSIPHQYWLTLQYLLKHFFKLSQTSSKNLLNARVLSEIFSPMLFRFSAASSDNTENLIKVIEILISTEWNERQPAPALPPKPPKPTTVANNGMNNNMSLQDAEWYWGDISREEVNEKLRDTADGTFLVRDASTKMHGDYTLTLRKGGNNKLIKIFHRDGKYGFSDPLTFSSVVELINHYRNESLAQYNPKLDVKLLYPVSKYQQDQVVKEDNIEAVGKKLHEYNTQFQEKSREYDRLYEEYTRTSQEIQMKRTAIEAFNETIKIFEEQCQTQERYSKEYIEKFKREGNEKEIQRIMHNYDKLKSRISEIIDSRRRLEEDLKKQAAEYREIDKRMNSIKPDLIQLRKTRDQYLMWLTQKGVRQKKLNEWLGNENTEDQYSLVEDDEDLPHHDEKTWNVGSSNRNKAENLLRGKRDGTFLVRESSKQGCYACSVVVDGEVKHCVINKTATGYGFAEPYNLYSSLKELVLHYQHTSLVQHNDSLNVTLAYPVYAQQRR

The assay concerns the target H1047R PIK3CA enzyme (Homo sapiens, UniProt P42336, H1047R). Kind of assay: ADP-Glo Biochemical PIK3CA Kinase Assay. The protocol: Compounds to be assayed were plated in 16 doses of 1:2 serial dilutions (20 nL volume each well) on a 1536-well plate, and the plate warmed to room temperature. […] To the well was added 1 μL of 200 μM ATP and 20 μM of diC8-PIP2 in Substrate Assay Buffer (50 mM HEPES pH7.4, 50 mM NaCl, 5 mM DTT and 0.03% CHAPS) to start the reaction, and the plate was shaken for 10 seconds, then spun briefly at 1500 rpm, and then incubated for 60 minutes at room temperature. The reaction was stopped by adding 2 μL of ADP-Glo reagent (Promega), and spinning briefly at 1500 rpm, and then incubating for 40 minutes. ADP-Glo Detection reagent (Promega) was added and the plate spun briefly at 1500 rpm, then incubated for 30 minutes.
In turn, `O=C1N[C@@H](c2cc(F)ccc2Cl)c2c(NC(=O)[C@@H]3CCCCN3)cc(-c3ccc4ncnn4c3)cc21` (racemic) [Compound I-1780] registered a 50% inhibitory concentration (IC50) of 10 to 100 µM.

`O=C(Nc1cccc2c1C(C1=C(F)CCCC1)NC2=O)c1cc(F)cc(C(F)(F)F)c1` (racemic) [Compound I-1790] displayed a half-maximal inhibitory concentration (IC50) of 0.5 to 1 µM.

The compound `CC1(C2NC(=O)c3cccc(NC(=O)c4cc(F)cc(C(F)(F)F)c4)c32)CC1` (racemic) [Compound I-1791] came in with an IC50 of 10 to 100 µM.

`CN1CC(C2NC(=O)c3cccc(NC(=O)c4cc(F)cc(C(F)(F)F)c4)c32)C1` (racemic) [Compound I-1832]: the IC50 lay in the range of 10 to 100 µM.

With `O=C(Nc1cccc2c1[C@H](C1CCC(F)(F)CC1)NC2=O)c1cc(F)cc(C(F)(F)F)c1` (racemic) [Compound I-1836], the IC50 lay in the range of 10 to 100 µM.

Consider `CC(=O)N[C@@H]1CCC[C@H](C(=O)Nc2cc(-c3ccc4ncnn4c3)cc3c2C(c2cc(F)ccc2Cl)NC3=O)C1` (mixture of isomers) [Compound I-1842], for which the IC50 fell in the range of 10 to 100 µM.

Regarding `CC(=O)N[C@H]1CCC[C@H](C(=O)Nc2cc(-c3ccc4ncnn4c3)cc3c2C(c2cc(F)ccc2Cl)NC3=O)C1` (mixture of isomers) [Compound I-1843], the half-inhibitory concentration (IC50) lay within 10 to 100 µM.

`N[C@@H]1CCC[C@H](C(=O)Nc2cc(-c3ccc4ncnn4c3)cc3c2C(c2cc(F)ccc2Cl)NC3=O)C1` (mixture of isomers) [Compound I-1844] registered an IC50 of 10 to 100 µM.

In turn, `N[C@H]1CCC[C@H](C(=O)Nc2cc(-c3ccc4ncnn4c3)cc3c2C(c2cc(F)ccc2Cl)NC3=O)C1` (mixture of isomers) [Compound I-1845] came in with a 50% inhibitory concentration (IC50) of 10 to 100 µM.

With `O=C1N[C@@H](c2cc(F)ccc2Cl)c2c(NC(=O)[C@H]3CCCNC3)cc(-c3ccc4ncnn4c3)cc21` (racemic) [Compound I-1847], the IC50 fell in the range of 10 to 100 µM.

Consider `O=C1N[C@H](c2cc(F)ccc2Cl)c2c(NC(=O)[C@H]3CCCNC3)cc(-c3ccc4ncnn4c3)cc21` (racemic) [Compound I-1848], for which the IC50 is 10 to 100 µM.

Compound `CC(=O)N[C@H]1CC[C@@H](C(=O)Nc2cc(-c3ccc4ncnn4c3)cc3c2C(c2cc(F)ccc2Cl)NC3=O)CC1` (mixture of isomers) [Compound I-1849] came in with an IC50 of 10 to 100 µM.

In turn, `CC(=O)N[C@H]1CC[C@H](C(=O)Nc2cc(-c3ccc4ncnn4c3)cc3c2C(c2cc(F)ccc2Cl)NC3=O)CC1` (mixture of isomers) [Compound I-1850] had an IC50 of 10 to 100 µM.

In turn, `O=C1N[C@@H](c2cc(F)ccc2Cl)c2c(NC(=O)[C@H]3C[C@H]3C(F)(F)F)cc(Br)cc21` (racemic) [Compound I-1853] returned an IC50 of 10 to 100 µM.

As to `O=C1N[C@H](c2cc(F)ccc2Cl)c2c(NC(=O)[C@H]3C[C@H]3C(F)(F)F)cc(Br)cc21` (racemic) [Compound I-1854], the IC50 fell in the range of 10 to 100 µM.

Compound `O=C1N[C@@H](c2cc(F)ccc2Cl)c2c(N[C@H]3COCc4ccccc43)cc(Br)cc21` (racemic) [Compound I-1893] yielded an IC50 of 10 to 100 µM.

`O=C1N[C@@H](c2cc(F)ccc2Cl)c2c(N[C@@H]3COCc4ccccc43)cc(Br)cc21` (racemic) [Compound I-1894] gave an IC50 of 10 to 100 µM.

`O=C(Nc1cccc2c1[C@H]([C@@H]1COCCN1)NC2=O)c1cc(F)cc(C(F)(F)F)c1` (racemic) [Compound I-1901] returned an IC50 of 10 to 100 µM.

`O=C(Nc1cccc2c1C(C1CCCCC13CC3)NC2=O)c1cc(F)cc(C(F)(F)F)c1` (racemic) [Compound I-1912] displayed an IC50 of 1 to 10 µM.

As for `O=C1NC(c2cc(F)ccc2Cl)c2c(NC(=O)[C@H]3C[C@@H](O)c4ccccc43)cc(Br)cc21` (mixture of isomers) [Compound I-1942], the IC50 was in the range of 10 to 100 µM.

In turn, `O=C1NC(c2cc(F)ccc2Cl)c2c(NC(=O)[C@H]3C[C@H](O)c4ccccc43)cc(Br)cc21` (mixture of isomers) [Compound I-1943] registered an IC50 of 10 to 100 µM.

`CN1CCCC[C@H]1C(=O)Nc1cc(-c2ccc3ncnn3c2)cc2c1[C@@H](c1cc(F)ccc1Cl)NC2=O` (racemic) [Compound I-1947] registered an IC50 of 10 to 100 µM.

`CN1CCCC[C@H]1C(=O)Nc1cc(-c2ccc3ncnn3c2)cc2c1[C@H](c1cc(F)ccc1Cl)NC2=O` (racemic) [Compound I-1948] displayed an IC50 of 10 to 100 µM.

On to `O=C(Nc1cc(Br)cc2c1[C@H](c1cc(F)ccc1Cl)NC2=O)N[C@]1(CC(F)(F)F)CCCOC1` (racemic) [Compound I-1949], for which the concentration for half-maximal inhibition (IC50) was 10 to 100 µM.

The compound `O=C(Nc1cccc2c1C(C1CCCN1)NC2=O)c1cc(F)cc(C(F)(F)F)c1` (racemic) [Compound I-1956] gave an IC50 of 10 to 100 µM.

In turn, `O=C(Nc1cccc2c1C(C1CCCOC1)NC2=O)c1cc(F)cc(C(F)(F)F)c1` (racemic) [Compound I-1958] displayed a half-inhibitory concentration (IC50) of 10 to 100 µM.

Take `O=C(Nc1cc(Br)cc2c1[C@@H](c1cc(F)ccc1Cl)NC2=O)N[C@]1(CC(F)(F)F)CCCOC1` (racemic) [Compound I-1961]: the IC50 is 10 to 100 µM.

Consider `O=C1N[C@@H](c2cc(F)ccc2Cl)c2c(N[C@H]3CCOc4ccccc43)cc(Br)cc21` (racemic) [Compound I-2013], for which the IC50 is 10 to 100 µM.

Compound `O=C1N[C@@H](c2cc(F)ccc2Cl)c2c(N[C@@H]3CCOc4ccccc43)cc(Br)cc21` (racemic) [Compound I-2014] returned an IC50 of 10 to 100 µM.

As to `O=C1N[C@H](c2cc(F)ccc2Cl)c2c(N[C@H]3CCCNC3)cc(-c3ccc4ncnn4c3)cc21` (racemic) [Compound I-2023], the IC50 was in the range of 10 to 100 µM.

Compound `O=C(Nc1cccc2c1[C@H]([C@@H]1CCCCC1=O)NC2=O)c1cc(F)cc(C(F)(F)F)c1` (racemic) [Compound I-2036] yielded an IC50 of 10 to 100 µM.

`O=C(Nc1cccc2c1[C@@H](C13C[C@H]4C[C@@H](C1)C[C@@H](C3)C4)NC2=O)c1cc(F)cc(C(F)(F)F)c1` (racemic) [Compound I-2074] came in with an IC50 of 10 to 100 µM.

As for `O=C(Nc1cccc2c1[C@H](C13C[C@H]4C[C@@H](C1)C[C@@H](C3)C4)NC2=O)c1cc(F)cc(C(F)(F)F)c1` (racemic) [Compound I-2075], the IC50 is 1 to 10 µM.

The compound `O=C1N[C@@H](c2cc(F)ccc2Cl)c2c(NC(=O)N3C[C@H](O)C[C@@H]3CC(F)(F)F)cccc21` (racemic) [Compound I-2162] displayed an IC50 of 1 to 10 µM.

On to `O=C1N[C@H](c2cc(F)ccc2Cl)c2c(NC(=O)N3C[C@H](O)C[C@@H]3CC(F)(F)F)cccc21` (racemic) [Compound I-2163], for which the IC50 was 10 to 100 µM.

Compound `O=C1N[C@@H](c2cc(F)ccc2Cl)c2c(NC(=O)N3C[C@@H](O)C[C@@H]3CC(F)(F)F)cccc21` (racemic) [Compound I-2164] registered an IC50 of 1 to 10 µM.

`O=C1N[C@H](c2cc(F)ccc2Cl)c2c(NC(=O)N3C[C@@H](O)C[C@@H]3CC(F)(F)F)cccc21` (racemic) [Compound I-2165] had an IC50 of 10 to 100 µM.

As for `O=C1N[C@H](c2cc(F)ccc2Cl)c2c(Nc3cn[nH]c3)cc(Br)cc21` (racemic) [Compound I-2183], the 50% inhibitory concentration (IC50) was 10 to 100 µM.

The compound `O=C(Nc1cccc2c1[C@H]([C@H]1CCCCCN1)NC2=O)c1cc(F)cc(C(F)(F)F)c1` (racemic) [Compound I-2318] showed an IC50 of 10 to 100 µM.

Take `C[C@H]([C@@H]1C[C@@H](O)CN1C(=O)Nc1cccc2c1[C@H](c1cc(F)ccc1Cl)NC2=O)C(F)(F)F` (racemic) [Compound I-2341]: the IC50 fell in the range of 0.1 to 0.5 µM.

Turning to `N[C@]1(C(F)(F)F)CN(C(=O)Nc2cccc3c2[C@@H](c2cc(F)ccc2Cl)NC3=O)c2ccc(F)cc21` (racemic) [Compound I-2471], the IC50 fell in the range of 1 to 10 µM.

`Cc1ccccc1[C@@H]1NC(=O)c2nccc(NC(=O)N3C[C@H](C)c4ccccc43)c21` (single isomer, unassigned) [Compound I-300]: the IC50 was 0.1 to 0.5 µM.

Consider `Cc1ccccc1[C@H]1NC(=O)c2nccc(NC(=O)N3C[C@@H](C)c4ccccc43)c21` (single isomer, unassigned) [Compound I-301], for which the concentration for half-maximal inhibition (IC50) lay within 0.5 to 1 µM.

For `Cc1ccccc1[C@@H]1NC(=O)c2nccc(NC(=O)N3C[C@H](C)c4ccccc43)c21` (single isomer, unassigned) [Compound I-302], the half-inhibitory concentration (IC50) is 0.5 to 1 µM.

Compound `Cc1ccccc1[C@@H]1NC(=O)c2nccc(NC(=O)N3C[C@@H](C)c4ccccc43)c21` (single isomer, unassigned) [Compound I-303] gave a half-maximal inhibitory concentration (IC50) of 10 to 100 µM.

For `C[C@]1(O)C[C@@H](Nc2cc(NC(=O)c3cc(F)cc(C(F)(F)F)c3)c3c(n2)C(=O)NC3c2cc(F)ccc2Cl)C1` (single isomer, unassigned) [Compound I-329], the IC50 fell in the range of 0.1 to 0.5 µM.

`CN1C[C@H](Nc2cc(NC(=O)c3cc(F)cc(C(F)(F)F)c3)c3c(c2)C(=O)NC3c2cc(F)ccc2Cl)CC1=O` (single isomer, unassigned) [Compound I-343]: the IC50 is not above 0.1 µM.

In turn, `CN1C[C@@H](Nc2cc(NC(=O)c3cc(F)cc(C(F)(F)F)c3)c3c(c2)C(=O)NC3c2cc(F)ccc2Cl)CC1=O` (single isomer, unassigned) [Compound I-375] came in with an IC50 not above 0.1 µM.

`O=C(Nc1cc(N[C@H]2C[C@H](F)C2)cc2c1C(c1cc(F)ccc1Cl)NC2=O)c1cc(F)cc(C(F)(F)F)c1` (single isomer, unassigned) [Compound I-540] registered an IC50 not above 0.1 µM.

For the compound `O=C(Nc1cc(N[C@H]2C[C@@H](F)C2)cc2c1C(c1cc(F)ccc1Cl)NC2=O)c1cc(F)cc(C(F)(F)F)c1` (single isomer, unassigned) [Compound I-541], the half-inhibitory concentration (IC50) is not above 0.1 µM.

The compound `O=C(Nc1cc(N[C@H]2C[C@H](O)C2)cc2c1C(c1cc(F)ccc1Cl)NC2=O)c1cc(F)cc(C(F)(F)F)c1` (single isomer, unassigned) [Compound I-609] yielded an IC50 not above 0.1 µM.
